Data as given in PubChem BioAssay (NCI).
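Five compound concentrations were applied to cells in 96-well plates for 48 hours; endpoints were derived by simple linear interpolation of the resulting dose-response curve. GI50 is the concentration that inhibits growth by half. TGI marks complete inhibition of growth.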

Tests used:
Experiment in all cases: NCI tumour cell line growth inhibition, 48 h
786-0 renal = tested on: 786-0 renal
A498 renal = tested on: A498 renal
A549 NSCLC = tested on: A549 NSCLC
ACHN renal = tested on: ACHN renal
BT-549 breast = tested on: BT-549 breast
CAKI-1 renal = tested on: CAKI-1 renal
CCRF-CEM leukemia = tested on: CCRF-CEM leukemia
COLO 205 colon = tested on: COLO 205 colon
DU-145 prostate = tested on: DU-145 prostate
EKVX NSCLC = tested on: EKVX NSCLC
HCC-2998 colon = tested on: HCC-2998 colon
HCT-116 colon = tested on: HCT-116 colon
HCT-15 colon = tested on: HCT-15 colon
HL-60(TB) leukemia = tested on: HL-60(TB) leukemia
HOP-62 NSCLC = tested on: HOP-62 NSCLC
HOP-92 NSCLC = tested on: HOP-92 NSCLC
HS 578T breast = tested on: HS 578T breast
HT29 colon = tested on: HT29 colon
IGROV1 ovarian = tested on: IGROV1 ovarian
K-562 leukemia = tested on: K-562 leukemia
KM12 colon = tested on: KM12 colon
LOX IMVI melanoma = tested on: LOX IMVI melanoma
M14 melanoma = tested on: M14 melanoma
MALME-3M melanoma = tested on: MALME-3M melanoma
MCF7 breast = tested on: MCF7 breast
MDA-MB-435 = tested on: MDA-MB-435
MDA-MB-468 breast = tested on: MDA-MB-468 breast
MOLT-4 leukemia = tested on: MOLT-4 leukemia
NCI-H226 lung = tested on: NCI-H226 lung
NCI-H23 lung = tested on: NCI-H23 lung
NCI-H460 lung = tested on: NCI-H460 lung
NCI-H522 lung = tested on: NCI-H522 lung
NCI/ADR-RES ovarian = tested on: NCI/ADR-RES ovarian
OVCAR-3 ovarian = tested on: OVCAR-3 ovarian
OVCAR-4 ovarian = tested on: OVCAR-4 ovarian
OVCAR-5 ovarian = tested on: OVCAR-5 ovarian
OVCAR-8 ovarian = tested on: OVCAR-8 ovarian
PC-3 prostate = tested on: PC-3 prostate
RPMI-8226 leukemia = tested on: RPMI-8226 leukemia
RXF 393 renal = tested on: RXF 393 renal
SF-268 CNS = tested on: SF-268 CNS
SF-295 CNS = tested on: SF-295 CNS
SF-539 CNS = tested on: SF-539 CNS
SK-MEL-28 melanoma = tested on: SK-MEL-28 melanoma
SK-MEL-5 melanoma = tested on: SK-MEL-5 melanoma
SK-OV-3 ovarian = tested on: SK-OV-3 ovarian
SN12C renal = tested on: SN12C renal
SNB-19 CNS = tested on: SNB-19 CNS
SR leukemia = tested on: SR leukemia
SW-620 colon = tested on: SW-620 colon
T-47D breast = tested on: T-47D breast
TK-10 renal = tested on: TK-10 renal
U251 CNS = tested on: U251 CNS
UACC-257 melanoma = tested on: UACC-257 melanoma
UACC-62 melanoma = tested on: UACC-62 melanoma

## c1n[nH]cc1-c1nc2ccc3[nH]ncc3c2c2c1CC1(CCOCC1)CC2
786-0 renal
  GI50: 14.9 µM
  TGI: 43.1 µM
A498 renal
  GI50: 6.66 µM
  TGI: 22.4 µM
A549 NSCLC
  GI50: 22.8 µM
  TGI: > 100 µM
ACHN renal
  GI50: 7.72 µM
  TGI: > 100 µM
BT-549 breast
  GI50: 5.05 µM
  TGI: 18.9 µM
CAKI-1 renal
  GI50: 17.3 µM
  TGI: 38.5 µM
CCRF-CEM leukemia
  GI50: 22.1 µM
  TGI: 80.9 µM
COLO 205 colon
  GI50: 5.62 µM
  TGI: 22.2 µM
DU-145 prostate
  GI50: 17.9 µM
  TGI: > 100 µM
EKVX NSCLC
  GI50: 19.2 µM
  TGI: 54.4 µM
HCC-2998 colon
  GI50: 12.1 µM
  TGI: 32 µM
HCT-116 colon
  GI50: 4.62 µM
  TGI: > 100 µM
HCT-15 colon
  GI50: 19.8 µM
  TGI: > 100 µM
HL-60(TB) leukemia
  GI50: 8.38 µM
  TGI: 28.5 µM
HOP-62 NSCLC
  GI50: 15.4 µM
  TGI: 43.3 µM
HOP-92 NSCLC
  GI50: 13.4 µM
  TGI: 64.1 µM
HS 578T breast
  GI50: 7.74 µM
  TGI: 37.5 µM
HT29 colon
  GI50: 12.5 µM
  TGI: > 100 µM
IGROV1 ovarian
  GI50: 19.8 µM
  TGI: 69.6 µM
K-562 leukemia
  GI50: 16.9 µM
  TGI: > 100 µM
KM12 colon
  GI50: 19.2 µM
  TGI: 47.8 µM
LOX IMVI melanoma
  GI50: 8.51 µM
  TGI: 21.5 µM
M14 melanoma
  GI50: 6.24 µM
  TGI: 20.9 µM
MALME-3M melanoma
  GI50: 14.1 µM
  TGI: 27.9 µM
MCF7 breast
  GI50: 13 µM
  TGI: 40.9 µM
MDA-MB-435
  GI50: 11.6 µM
  TGI: 25.4 µM
MDA-MB-468 breast
  GI50: 10.7 µM
  TGI: 23.2 µM
MOLT-4 leukemia
  GI50: 13.4 µM
  TGI: 42.7 µM
NCI-H226 lung
  GI50: 13.9 µM
  TGI: 39.2 µM
NCI-H23 lung
  GI50: 13.8 µM
  TGI: 28.8 µM
NCI-H460 lung
  GI50: 10.1 µM
  TGI: 26.4 µM
NCI-H522 lung
  GI50: 4.84 µM
  TGI: 21.2 µM
NCI/ADR-RES ovarian
  GI50: 58.3 µM
  TGI: > 100 µM
OVCAR-3 ovarian
  GI50: 16.8 µM
  TGI: 65.3 µM
OVCAR-4 ovarian
  GI50: 23.4 µM
  TGI: 89.2 µM
OVCAR-5 ovarian
  GI50: 27.7 µM
  TGI: 92.3 µM
OVCAR-8 ovarian
  GI50: 13.3 µM
  TGI: 32.6 µM
PC-3 prostate
  GI50: 16.7 µM
  TGI: > 100 µM
RPMI-8226 leukemia
  GI50: 11.1 µM
  TGI: 42.7 µM
RXF 393 renal
  GI50: 3.55 µM
  TGI: 16.1 µM
SF-268 CNS
  GI50: 16.6 µM
  TGI: 41.2 µM
SF-295 CNS
  GI50: 24.9 µM
  TGI: 71.1 µM
SF-539 CNS
  GI50: 13.5 µM
  TGI: 27.3 µM
SK-MEL-28 melanoma
  GI50: 12.1 µM
  TGI: 25.6 µM
SK-MEL-5 melanoma
  GI50: 14.8 µM
  TGI: 28.7 µM
SK-OV-3 ovarian
  GI50: 4.09 µM
  TGI: 60.2 µM
SN12C renal
  GI50: 13.3 µM
  TGI: 44.3 µM
SNB-19 CNS
  GI50: 19.3 µM
  TGI: 71.2 µM
SR leukemia
  GI50: 3.33 µM
  TGI: 15.2 µM
SW-620 colon
  GI50: 5.05 µM
  TGI: > 100 µM
T-47D breast
  GI50: 13 µM
  TGI: 55.8 µM
TK-10 renal
  GI50: 8.2 µM
  TGI: > 100 µM
U251 CNS
  GI50: 11.4 µM
  TGI: > 100 µM
UACC-257 melanoma
  GI50: 14.7 µM
  TGI: 36.5 µM
UACC-62 melanoma
  GI50: 4.37 µM
  TGI: 15.8 µM
